The text below walks through data of patent US12648937B2, “Composition containing levamlodipine besylate hydrate and its preparation method” (SHIHUIDA PHARMACEUTICALS GROUP (JILIN) LTD., priority 2019, dated 2026).

The nature of data set [1]: Thermal stability of hydrate compositions, 45° C. oven for 5 days, impurities by HPLC. To be noted: for Impurity Content, impurities before heating of sample: 0 days; for Impurity Content, sample placed in 45° C. oven for 5 days: amber glass bottles. The data set is classed as physicochemical. On the procedure:
Using the method of Example 2 of the present invention, compositions with different crystalline water content can be prepared and used as samples to test thermal stability.
The samples are placed in amber glass bottles, placed in an oven, and the temperature is adjusted to 45° C., and the relevant substances are tested after settled for 5 days.
The test method is as follows: The chromatographic conditions and system applicability test: Use octadecylsilane-bonded silica gel as the filler; methanol-0.03 mol/L potassium dihydrogen phosphate solution (75:25) as the mobile phase, the detection wavelength is 238 nm, the number of theoretical plates should be no less than 500 calculated in levamlodipine.
Preparation of the Test Solution: Take about 17 mg of this product, precisely weigh it, put it in a 100 ml volumetric flask, add a mobile phase to dissolve and dilute to the mark, shake well, precisely measure 5 ml, put it in a 25 ml volumetric flask, add a mobile phase to the mark, shake well to obtain the solution.
Determination Method: Precisely measure 10 μl of the reference solution and the test solution, inject into the liquid chromatography machine, record the chromatogram, measure the peak area, and calculate by the external standard method.

Data set [2] can be described thus: Acute toxicity (LD50, Bliss method) of levamlodipine besylate hydrate composition tablets. To be noted: Kunming, mouse, in vivo. On the procedure: In this experiment the tablet formulation is the one of Example 5, in which the crystalline water content of the levamlodipine besylate hydrate composition is 5.3%.
In this experiment, the LD50 is measured by two administration routes. […] Animals: Kunming mice, half male and half […], each weighing 18-28 g, 10 animals in each group, fasted for 16 hours before use. Dosage: Oral administration: […], 0.6580 (g/kg), intraperitoneal administration: 0.7743, 0.6582, 0.5594, 0.4755, 0.4042 (g/kg) dose gradient: 0.85. Route of administration: experimental methods of oral administration and intraperitoneal administration, 100 mice are selected, fasted for 16 hours, and randomly divided into 10 groups. Oral administration to the first 5 groups, and the dose being 0.35 ml/10 g; intraperitoneal administration to the latter 5 groups, and the dose being 0.2 ml/10 g.

Data set [3] can be described thus: Material properties (granulation, stickiness, sieving) of levamlodipine besylate hydrate composition granules. Particulars: granules of given crystalline water content, finishing of granulation, 10 mesh. The data set is classed as physicochemical. From the text: In order to meet the requirements for the production of solid-form preparation plain tablets, the preparation is a direct compression method. As such, the granules of the active pharmaceutical ingredient need to pass through a sieve below 10 mesh to ensure content uniformity. […] A hydrate composition with a crystalline water content of less than 5.8% can meet the requirements of the finishing of granulation. […] The crystalline water content of the hydrate being controlled below 5.5% can better meet the requirements of making pharmaceutical preparations. 1. Production of Samples: the method of Example 2 is used to prepare samples with corresponding water content.

`CCOC(=O)C1=C(COCCN)NC(C)=C(C(=O)OC)[C@@H]1c1ccccc1Cl.O=S(=O)(O)c1ccccc1` [Sample 1]: the “Impurity Content, impurities before heating of sample” value (from here on “Impurity Content … of sample”) in data set [1] is reported as “None”. Moreover, in data set [1] (45° C. oven, 5 days), the “change in the appearance” value is given as “no obvious change” and the “Impurity Content, sample placed in 45° C. oven for 5 days” value (shortened to “Impurity Content, sample placed”) is 0.07%. On to `CCOC(=O)C1=C(COCCN)NC(C)=C(C(=O)OC)[C@@H]1c1ccccc1Cl.O=S(=O)(O)c1ccccc1` [(4 s)-2-[(2-aminoethoxy)methyl]-4-(2-chlorophenyl)-6-methyl-1,4-dihydro-3,5-pyridinedicarboxylic acid-3-ethyl ester, 5-methyl ester benzenesulfonate hydrate], for which the LD50 at 7 days in data set [2] (ip) stood at 16 ± 1.38 mg/kg; in data set [2] (po), 24.9 ± 1.75 mg/kg. Consider `CCOC(=O)C1=C(COCCN)NC(C)=C(C(=O)OC)[C@@H]1c1ccccc1Cl.O=S(=O)(O)c1ccccc1` [6.0%], for which the “Sieving Performance” value in data set [3] was “stick together even”. As for `CCOC(=O)C1=C(COCCN)NC(C)=C(C(=O)OC)[C@@H]1c1ccccc1Cl.O=S(=O)(O)c1ccccc1` [5.8%], in data set [3], the “Sieving Performance” value is given as “have essentially no” and the Stickiness result was “essentially no”.

For the compound `CCOC(=O)C1=C(COCCN)NC(C)=C(C(=O)OC)[C@@H]1c1ccccc1Cl.O=S(=O)(O)c1ccccc1` [5.9%], in data set [3], the “Sieving Performance” value is reported as “are less sticky”.

For `CCOC(=O)C1=C(COCCN)NC(C)=C(C(=O)OC)[C@@H]1c1ccccc1Cl.O=S(=O)(O)c1ccccc1` [5.5%], in data set [3], the “Sieving Performance” value is reported as “have no stickiness” and the Stickiness entry is recorded as “no stickiness”. In the case of `CCOC(=O)C1=C(COCCN)NC(C)=C(C(=O)OC)[C@@H]1c1ccccc1Cl.O=S(=O)(O)c1ccccc1` [Sample 3], the “Impurity Content … of sample” value in data set [1] is “None”. Besides, the “Impurity Content, sample placed” value in data set [1] (45° C. oven, 5 days) was “None”.

Regarding `CCOC(=O)C1=C(COCCN)NC(C)=C(C(=O)OC)[C@@H]1c1ccccc1Cl.O=S(=O)(O)c1ccccc1` [Sample 2], the “Impurity Content … of sample” value in data set [1] is listed as “None”. Besides, in data set [1] (45° C. oven, 5 days), the “Impurity Content, sample placed” value is listed as “None”.
